According to PubChem BioAssay (NCI):
Several values for one entry are separate records, joined by “and”; a condition that tells them apart may be missing. Equal values may be shown once.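 Growth conditions: 96-well plates. Treatment: test compound, 48 hours, 5 concentrations. Analysis: linear interpolation between bracketing concentrations; unreached endpoints set to highest concentration. GI50 is the concentration that inhibits growth by half. TGI denotes the concentration required for complete inhibition of growth.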

Columns and labels:
Experiment in all cases: growth of human tumour cells (NCI), 48 h
[1] = test system: SF-268 CNS
[2] = test system: HOP-62 NSCLC
[3] = test system: CAKI-1 renal
[4] = test system: NCI-H522 lung
[5] = test system: HCC-2998 colon
[6] = test system: HOP-92 NSCLC
[7] = test system: HT29 colon
[8] = test system: T-47D breast
[9] = test system: CCRF-CEM leukemia
[10] = test system: BT-549 breast

Compound	GI50 [1] [µM]	TGI [1]	GI50 [2] [µM]	TGI [2]	GI50 [3] [µM]	TGI [3]	GI50 [4] [µM]	TGI [4]	GI50 [5] [µM]	TGI [5]	GI50 [6] [µM]	TGI [6]	GI50 [7] [µM]	TGI [7]	GI50 [8] [µM]	TGI [8] [µM]	GI50 [9] [µM]	TGI [9]	GI50 [10] [µM]	TGI [10] [µM]
CCOC(=O)[C@@H](C)C[C@H](Cc1ccccc1)NC(=O)c1csc([C@@H](C[C@H](C(C)C)N(C)C(=O)[C@@H](NC(=O)[C@H]2CCCCN2C)C(C)(C)CC)OC(C)=O)n1	0.00278	> 12.8 µM	0.00178	> 16.7 µM	0.00176	> 9.4 µM	< 0.00167	0.0397 µM	< 0.00167	2.77 µM	0.0019	5.69 µM	< 0.00167	> 6.79 µM	< 0.00167	> 16.7	0.00246	> 8.65 µM	< 0.00167	0.107
O=C1/C(=C/c2ccc(Cl)c(Cl)c2)CN(C(=O)C(Cl)Cl)C/C1=C\c1ccc(Cl)c(Cl)c1	0.243	1.14 µM	0.271	0.972 µM	0.244	0.826 µM	0.27	1.2 µM	0.181	0.355 µM	0.19	0.541 µM	0.071	2.07 µM	0.256	1.77	0.0372	> 100 µM	0.228	0.701
Cc1cc(=O)oc2ccc(OC/C=C3\CCC(=O)O3)cc12	13.2	43.6 µM	13.5	29.9 µM	2.72	14.8 µM	1.65	3.57 µM	14.7	28.1 µM	5	24.4 µM	3.62	15.5 µM	2.6	19.6	2.61	7.96 µM	7.49	23.4
CSc1ccc(C2=C(c3ccccc3)C(=O)OC2)cc1	3.02	> 64.7 µM	1.96	> 70 µM	0.409	10.1 µM	0.619	2.45 µM	0.309	18.9 µM	2.13	44.7 µM	0.239	> 100 µM	1.22	> 100	0.508	2.85 µM	16.2	> 100
c1ccc(-c2oc(-c3ccccc3)c(CN3CCCCC3)c2CN2CCCCC2)cc1	6.04	20.6 µM	4.69	21.8 µM	4.81	18.7 µM	2.47	11.7 µM	2.02	4.23 µM	1.48	5.89 µM	1.27	13.3 µM	2.71	11.7	2.54	9.97 µM	3.35	13.3
CN=C(N)c1ccc(N=C(N)c2ccc(-c3ccc(C(N)=Nc4ccc(C(N)=NC)cc4)cc3)cc2)cc1	> 100	> 100 µM	> 100	> 100 µM	> 100	> 100 µM	18.4	> 100 µM	> 100	> 100 µM	84.5	> 100 µM	62.8	> 100 µM	58.2	> 100	> 100	> 100 µM	> 100	> 100
C#Cc1cccc(Nc2ncnc3cc(NC(=O)CCl)ccc23)c1	3.3	8.55 µM	3.22	6.77 µM	1.78	6.06 µM	0.414	0.894 µM	4.16	8.46 µM	3.56	8.09 µM	1.06	5.74 µM	2.43	5.93	0.626	2.7 µM	3.23	6.99
COc1cc2oc(-c3cccc(C(=O)Nc4ccc(Cl)cc4)c3)cc(=O)c2c(OC)c1OC	4.66	> 100 µM	2.66	9.89 µM	1.79	7.84 µM	1.73	> 100 µM	3.05	> 100 µM	1.46	5.58 µM	1.97	6.65 µM	1.68	> 100	2.28	> 100 µM	1.18	> 100
CN1CCN(CC(=O)N(C)c2ccc(N=C(c3ccccc3)c3c(O)[nH]c4ccc(C#N)cc34)cc2)CC1	2.62	14.6 µM	3.99	16.5 µM	1.26	8.96 µM	5.29	22.4 µM	3.38	13.4 µM	3.36	20.8 µM	0.712	15 µM	14.2	41.1	1.2	12.5 µM	1.68	3.69
COc1cc2cc(Oc3ccc(NC(=O)Nc4cc(C(F)(F)F)cc(C(F)(F)F)c4)cc3)c(C)nc2cc1OCCN1CCOCC1	1.98	8.06 µM	2.2	9.16 µM	1.47	5.68 µM	1.63	7.29 µM	2.09	6.97 µM	0.9	2.71 µM	1.75	7.14 µM	2.04	10.2	1.41	6.57 µM	1.87	7.35
Clc1nccc2c(-c3csc(-c4c[nH]c5ccc(Br)cc45)n3)c[nH]c12	4.06	18 µM	2.11	7.24 µM	1.96	8.04 µM	2.28	6.86 µM	2.22	4.4 µM	2.43	6.81 µM	2.66	8.22 µM	3.12	18	3.16	20.9 µM	4.7	24.4
O=C(O)C1=C/C(=C(/c2ccccc2)c2cc(C(=O)O)c(O)c3ccccc23)c2ccccc2C1=O	–	> 100 µM	–	> 100 µM	–	> 100 µM	–	> 100 µM	–	> 100 µM	–	> 100 µM	–	> 100 µM	–	> 100	–	> 100 µM	–	> 100
CN(C)c1ccc(/C=C\c2ccnc3ccccc23)cc1	21.8	> 100 µM	7.5	> 67.9 µM	10.2	> 100 µM	6.4	> 100 µM	6.04	> 100 µM	6.23	60.4 µM	2.49	12.4 µM	2.48	> 100	5.13	> 100 µM	5.09	49.9
O=C(CS(=O)(=O)c1nc2ccccc2nc1-c1ccccc1)Nc1ccc(F)cc1	91.8	> 100 µM	> 100	> 100 µM	> 100	> 100 µM	48.2	> 100 µM	13.3	26.9 µM	22.3	> 100 µM	33.6	> 100 µM	56.6	> 100	3.15	18.8 µM	29.1	> 100
O=C1NC(=NCc2ccccc2Cl)S/C1=C\c1ccc2ncccc2c1	18.9	> 25 µM	16	> 25 µM	4.83	> 19.5 µM	4.75	> 17.9 µM	> 25	> 25 µM	5.85	> 22.1 µM	> 25	> 25 µM	> 25	> 25	11.2	> 25 µM	7.86	> 25
Oc1ccc(Br)cc1C=Nc1cccc(C(F)(F)F)c1	–	> 100 µM	–	> 100 µM	–	> 100 µM	–	> 100 µM	–	60.1 µM	–	> 100 µM	–	> 100 µM	–	> 100	–	28.5 µM	–	98.3
C[C@@]1([C@H](OC(=O)c2ccccc2)C(N)=O)CO1	19.4	50 µM	21.8	64.9 µM	10.7	31.5 µM	22.2	76.5 µM	20.5	40.3 µM	14.8	42.1 µM	27	> 100 µM	30.4	83.3	19.7	> 100 µM	20.8	48.5
NS(=O)(=O)c1ccc(Nc2cc(-c3ccc(O)c(F)c3)[nH]n2)cc1	10.3	> 25 µM	> 25	> 25 µM	> 25	> 25 µM	13.9	> 25 µM	> 25	> 25 µM	> 18.3	> 25 µM	> 25	> 25 µM	> 16.6	> 25	13.5	> 25 µM	8.66	> 25
COC(=O)NC1C(C)OC(OC2C/C=C(/C)C3C=CC4C(OC5CC(OC6CCC(OC7CC(O)C(OC8CCC(O)C(C)O8)C(C)O7)C(C)O6)C(OC(C)=O)C(C)O5)C(C)CC(C)C4C3(C)/C(O)=C3/C(=O)OC4(CC(C=O)=CC(O)C4/C=C\2C)C3=O)CC1(C)[N+](=O)[O-] (stereo not drawn)	0.105	11.2 µM and 9.73 µM	0.275	1.81 µM and 0.667 µM	1.05	7.08 µM and 3.27 µM	0.222	2.8 µM and 0.645 µM	0.208	1.95 µM and 0.453 µM	0.908	2.69 µM and 3.32 µM	0.352	2.61 µM and 12.8 µM	–	10.2	0.0687	4.86 µM and 1.78 µM	–	2.18
O=C1NC(=S)S/C1=C\c1cn(-c2ccccc2)nc1-c1ccccc1	17.2	> 100 µM	22.7	68.4 µM	7.14	51.8 µM	2.96	55.1 µM	6.05	47.1 µM	0.623	5.34 µM	12.5	38.3 µM	4.59	32.6	2.5	69.8 µM	5.2	23.7
